As usually defined, the pKa is the negative logarithm of the acid dissociation constant. The low end stands for a stronger acid or weaker base, the high end for a weaker acid or stronger base.

A short description of the series: Ionization state of the molecule at physiological pH was evaluated by potentiometry. It is filed as ADME.

Molecules are shown by their SMILES.

On to `Nc1ncnc2c1nc(N)n2[C@@H]1O[C@H](CO)[C@@H](O)[C@H]1O`, for which the pKa is 4. `COc1ccc2nc3cc(Cl)ccc3c(N)c2c1` returned a pKa of 8.99.

The values above are taken from ChEMBL document CHEMBL1132021, “Synthesis of an imidazo[1,2-e]purine-acridine heterodimer for targeting abasic sites in DNA” (Bioorg Med Chem Lett, 1999).
